The values below come from a melting point compilation (Tetko et al.; mined from patent text by program, amines drawn as free bases though some values may be those of a salt).

For the molecule `N#Cc1nn(-c2c(Cl)cc(C(F)(F)F)cc2Cl)cc1OC(F)F`, the melting point (in general, the temperature of the solid-liquid transition) is 85 to 87 °C.
With `CNC(=O)[C@@H](C[C@H](O)[C@H](CC1CCCCC1)NC(=O)OC(C)(C)C)C(C)(C)O` the figure was 174 to 175 °C; with `CCc1nc2nc(C)nn2c(O)c1CCC(C)CC(C)(C)C` (centres undefined), 183 to 185 °C; with `Cc1oncc1C(=O)Nc1ccc(-n2nc(C(F)(F)F)cc2C(F)(F)F)cc1`, 163 to 167 °C.
With `C[C@H]1C[C@@](O)(c2cccc(S(=O)(=O)c3ccc4c(c3F)CCC(=O)N4C)c2)CCO1` the figure was 149 to 151 °C.
With `CN(CCCN)S(=O)(=O)CCC(F)(F)C(F)(F)C(F)(F)C(F)(F)C(F)(F)C(F)(F)F` the figure was 135 °C.
`CC(C(=O)O)c1cccc(NC(=O)NC2N=C(c3ccccc3F)c3ccccc3N(CC(=O)N3CC4CCC(CC4)C3)C2=O)c1` (racemic) registered a melting point of 187 to 204 °C.
Molecule `O=C(O)COc1c(Br)cc(-c2cccc3sc4ccccc4c23)cc1Br` came in with a melting point of 212 to 213 °C.
With `O=C(CCl)[C@H](Cc1ccccc1)N(Cc1ccccc1)Cc1ccccc1` the figure was 45.8 to 46.8 °C; with `CN(C)c1ccc(Nc2cccc3c2C(=O)N(C2CCC(=O)NC2=O)C3=O)cc1` (centres undefined), over 260 °C; with `Oc1ccc(-c2c3ccccc3c(Br)c3sc4ccccc4c23)cc1`, 211 to 213 °C.
With `CCOC(=O)C(C)(C)Oc1ccc(OCCn2c(=O)sc3cc(C(=O)c4ccccc4)ccc32)cc1` the figure was 120 to 121 °C; with `CC(=O)Nc1ccc2c(c1)C(=O)c1cc(NC(C)=O)ccc1C2=O`, 340 °C.
The result for `CCOC(=O)COc1cc2c(c(Cl)c1Cl)C(=O)C(c1ccccc1)C2` (centres undefined) reads 114 to 115 °C.
`CCOC(=O)Cc1csc(NS(=O)(=O)c2ccccc2)n1`: the melting point is 129 to 130 °C.
The molecule `CCOC(=O)CCCCOc1ccc(OCC)cc1C=O` had a melting point of 80 to 81 °C.
Turning to `CC(=NOCC(=O)O)c1ccc(NS(C)(=O)=O)c(Oc2ccc(F)cc2F)c1`, the melting point fell in the range of 174 to 175 °C.
With `COc1cc(C(=O)NS(=O)(=O)c2ccccc2Br)ccc1Cc1cccc2ccc(CCCCC(=O)N(C)C)cc12` the figure was 91 to 97 °C; with `CC(OC(=O)Nc1ccc(-c2ncn(-c3ccc(OC(F)(F)F)cc3)n2)cc1)C1CC1` (centres undefined), 123 to 124 °C; with `Cc1nc(C)c(-c2[nH]nc3c2C(=O)c2c(NC(=O)NN4CCOCC4)cccc2-3)s1`, over 300 °C.
`COc1ccccc1COc1ccc(S(=O)(=O)c2ccc(C)nc2Nc2c(C)cc(C)cc2C)cc1` came in with a melting point of 148 to 150 °C.
In turn, `CC1(C)SC(c2ccccc2OCCO[N+](=O)[O-])NC1C(=O)O` (centres undefined) came in with a melting point of 98 to 101 °C.
Turning to `CS(=O)(=O)c1ccc(-c2cnn(-c3ccsc3)c(=O)c2-c2ccc(F)cc2)cc1`, the melting point was in the range of 200 to 202 °C.
With `O=C1c2cccc3c2N(CC3)c2ccccc2N1CC#CCN1CCCC1` the figure was 80 to 81 °C; with `CN(c1ccc(O)cc1)c1ncnc2cc(Cl)ccc12`, 165 °C.
Molecule `CCOCc1nc2c(N)nc(C)c(C)c2n1NC1CCCCC1` yielded a melting point of 108 to 110 °C.
As to `CCN(CCOC)C(=O)c1cc(-c2ccccc2)c(=O)[nH]c1-c1c(Cl)cccc1C#N`, the melting point is 184 to 186 °C.
`CCCCCCCCc1cc2c(cc1CCCCCCCC)c1ccsc1c1sccc21` yielded a melting point of 62.2 to 63.1 °C.
With `O=C(c1cc(C(F)(F)F)cc(C(F)(F)F)c1)N1CCC2(CC1)C(=O)NCN2c1ccccc1` the figure was 251 °C; with `FC(F)(F)c1cccc(N2CCN(c3nc4cccc5c4n3CCC5)CC2)c1`, 158 to 159 °C; with `O=C(NCc1ccccc1)C12CC3CC(CC(C3)C1)C2`, 170 to 172 °C.
Regarding `CC(C)(C)OC(=O)C(Cc1ccccc1)c1ccc([N+](=O)[O-])cc1` (centres undefined), the melting point fell in the range of 98 to 99 °C.
Take `CCC1(C)CC(S(=O)(=O)C(Cl)(Cl)c2cccc(F)c2)=NO1` (centres undefined): the melting point worked out at 100 °C.
Regarding `CSc1nc2ccc(Br)cc2o1`, the melting point is 95 to 96 °C.
The result for `N#Cc1ccc(-c2ccc(O)c(C(=O)O)c2)cc1` reads 227 °C.
With `Cc1cc(-c2cc(C(F)(F)F)n3ncc(-c4nc(-c5ccc(N)nc5)no4)c3n2)ccc1C(F)(F)F` the figure was 220 °C; with `Cc1nc2c3c(c(C(=O)N(C)C)cc2n1C)CC[C@@H](c1ccccc1)O3`, 227 to 228 °C; with `Cc1cc2cnn(CCO)c2cc1Nc1nnc2n1[C@H](c1ccc(F)cc1)COC2`, 215 to 217 °C.
With `O=C(CC(F)(F)F)N[C@H]1CC[C@H](CCN2CCN(c3nccc4c3CCO4)CC2)CC1` the figure was 196 °C.
For the molecule `CCOC(=O)c1nc(C)n2c1CN=C(c1ccccc1F)c1cc(C#N)ccc1-2`, the melting point lay in the range of 272 to 274 °C.
The result for `CC1CC2=C(OC(NC=N)C2)c2ccc(=O)[nH]c21` (centres undefined) reads over 250 °C; that for `CC(C)C[C@H](NC(=O)OCc1ccco1)C(=O)N[C@@H](Cc1ccccc1)C(=O)CSCc1ccco1`, 115 to 118 °C; that for `CCCCCCCCCCCCc1cc(N)no1`, 79.5 to 81 °C.
As for `CN(C)CC(=O)N1CCC(c2cc(F)ccc2F)(S(=O)(=O)c2ccc(Cl)cc2)CC1`, the melting point was 88 to 92 °C.
Take `CS(=O)(=O)c1ccc(-c2cc(=O)cc(CO)o2)cc1`: the melting point came to 120 °C.
The result for `COC(=O)c1ccc2cc(CCCO)oc2c1` reads 63 to 65 °C.
`CCOC(=O)c1csc(-c2ccc3nc(CC(C)C)c(CN)c(-c4ccc(C)cc4)c3c2)n1`: the melting point fell in the range of 150 to 152 °C.
The result for `COc1ccc(C)cc1NC(=O)Nc1ccc(N2CCN(C(=O)Nc3ccccc3)CC2)cc1` reads 221 °C; that for `CCOC(=O)CC(C)N=c1sc2ccc(Cl)cc2s1` (centres undefined), 60 to 61 °C; that for `CC(C)(C)OC(=O)C1CCCN2C(=O)CC(=O)N12` (centres undefined), 121 to 122 °C.
As for `CNS(=O)(=O)c1cn(C)c2ccc(OC)cc2c1=O`, the melting point lay in the range of 262 to 264 °C.
The result for `CCOC(=O)c1c(O)c2cc(C)ccc2n(Cc2ccc(F)cc2)c1=O` reads 130 °C; that for `O=C(Cc1ccc(OC2Cc3ccccc3C2)cc1)NC1(C(=O)O)Cc2ccc(-c3ccc(Cl)cc3)cc2C1` (centres undefined), 233 to 234 °C.
Molecule `CC(=O)NNc1ccc(N=Cc2ccccc2)cc1` gave a melting point of 172 to 174 °C.
Turning to `CCOC(=O)NC(=O)n1c(-c2cc(OC)c(O)c(OC)c2)nc(-c2ccc(N(CC)CC)cc2)c1-c1ccc(N(CC)CC)cc1`, the melting point is 60 °C.
The result for `CCOC(=O)C(C)Oc1ccc(N(C)c2cnc3cc(Cl)c(Cl)cc3n2)cc1` (centres undefined) reads 79 °C.
For the molecule `Cn1nc(-c2nc(-n3cccc3)c(N)nc2-c2ccccc2)ccc1=O`, the melting point lay within 202 to 205 °C.
The molecule `Nc1nc(S(N)(=O)=O)c2ncn(C3OC(CO)C(O)C3O)c2n1` (centres undefined) came in with a melting point of over 193 °C.
The result for `CCOC(=O)Cc1csc(NC(=O)c2ccc(F)cc2)n1` reads 110 to 112 °C.
With `COc1ccc2c(N)cccc2c1C(F)(F)F` the figure was 120 °C; with `CC1(C)CCC(C)(C)c2c(OCc3ccc(F)cc3)cc(C(O)C#Cc3ccc(C(=O)O)cc3)cc21` (centres undefined), 188 °C; with `CC(C)c1nc(CCN(C)C(=O)N[C@H](C(=O)N[C@@H](Cc2ccccc2)C[C@H](O)[C@H](Cc2ccccc2)NC(=O)OCc2cncs2)C(C)C)cs1`, 62 to 63 °C.
With `CS(=O)(=O)c1ccc(-n2nc(CNC(=O)NC3CCCCCC3)cc2-c2ccccc2)cc1` the figure was 104 to 110 °C; with `CCOC(=O)C(=NO)c1cccc(C(=O)c2ccccc2)c1`, 109 to 110 °C.
In turn, `CC(C)(C)NC(=O)Nc1nc2nc(N)ncc2cc1-c1cccc(Cl)c1Cl` registered a melting point of 356 to 358 °C.
The result for `Cc1nc2c(o1)-c1c(SC(C)C)sc(C(N)=O)c1CC2` reads 230 to 231 °C; that for `CC[C@@H]1N(c2ccc(C#N)c(Cl)c2C)C(=O)C[C@]1(C)O`, 156 to 158 °C; that for `c1cn(CC2(CCCC3CCCC3)SCCS2)cn1`, 136 to 137 °C.
The result for `Cc1ccc(S(=O)(=O)OCCC2COc3ccccc3O2)cc1` (centres undefined) reads 82 to 83 °C; that for `CC(C)CC(=O)Nc1cccc(-c2ccnc3c(-c4ccc(Cl)cc4)cnn23)c1`, 215 to 217 °C; that for `CCOC(=O)c1ccc2c(c1)C(=C1CCN(C)CC1)c1ccccc1C=C2`, 94 to 96 °C.
In turn, `Cc1cc(F)c(-n2c(=O)oc3c(c2=O)CCC3)cc1OC(C)C` had a melting point of 131 to 133 °C.
For the molecule `CCCN1CCC23c4cccc(O)c4OC2C2CCC3(C1)C(COC)C2` (centres undefined), the melting point lay within 130 to 131 °C.
With `NS(=O)(=O)c1ccc2c(c1)C=C(C(=O)O)C(C(F)(F)F)O2` (centres undefined) the figure was 188 to 190 °C.
With `COC1CCC(OC)C2=C1C=CC(O)(C(C)=O)C2` (single isomer, unassigned; (-)) the figure was 130 to 132 °C; with `CCCCOc1cc(CCC(=O)O)n(Cc2ccc(C(F)(F)F)cc2)n1`, 116 to 118 °C; with `O=C(OCC1CCCN1)N1CCN(c2cc(N3CCCC3)nc(N3CCCC3)n2)CC1` (single isomer, unassigned; (+)), 137 to 138 °C.
The result for `CC(C)c1cc(-c2ccncc2)c(-c2ccc(F)cc2)n1CCC1CC(O)CC(=O)O1` (centres undefined) reads 174 to 176 °C; that for `C=CCOc1ccc(C(=O)C=Cc2cc(OC)c(C)c(OC)c2)cc1`, 143 to 144 °C; that for `COc1ccc(-c2cc3c(Nc4cccc(Cl)c4)ncnc3[nH]2)cc1`, 294 to 295 °C.
Consider `COc1ccc2ccccc2c1CONC(C)=O`, for which the melting point is 112 °C.
As to `COc1c2c(cc3c(C)cc(=O)oc13)CC(C)O2` (centres undefined), the melting point lay in the range of 113 to 115 °C.
As for `COCCNS(=O)(=O)c1cccc(Nc2nccc(-c3sc(N)nc3C)n2)c1`, the melting point fell in the range of 179 to 180 °C.
`CCCCCCCCNC(=O)n1cc(F)c(=O)[nH]c1=O` had a melting point of 98 to 100 °C.
